“Also recorded” adds a separate entry of the source. Like-named read-outs stand apart in the source and are kept apart here.
Tests used:
[1] = Dose escalation study, single/multiple dose and loading dose regimens: safety and tolerability; assay type: in vivo
Experimental: (§1) The pharmacokinetics (PK), safety, and tolerability of single and multiple doses of CEM-102 (sodium fusidate) were evaluated in a single-center, Phase 1, double-blind, randomized, placebo-controlled, dose-escalating study in 32 healthy adult subjects enrolled in 4 dosage groups (550, 1100, 1650, and 2200 mg). In each cohort, six subjects were to receive CEM-102 and two were to receive placebo in a single dose (Period 1) and then multiple doses BID for a total of 11 doses over 5.5 days (Period 2). The two dosing periods were separated by a seven-day washout period between the single dose in Period 1 and the first dose in Period 2.
(§2) Dosing proceeded as planned for Cohorts 1 to 3; however, Cohort 4 received only the single dose of 2200 mg (Period 1), because dose-limiting gastrointestinal intolerance was observed after multiple doses of 1650 mg BID in Cohort 3. Period 2 for Cohort 4 evaluated an initial loading dose regimen, and a second loading dose regimen was evaluated in an additional cohort (Cohort 5) per a protocol amendment.
(§3) The protocol was amended for assessment of the safety, tolerability, and PK of front-loaded dose regimens comprised of a higher dose of CEM-102 on Day 1 followed by lower doses for the subsequent 6.5 days. All loading dose regimens employed multiple doses lower than the maximum tolerated dose (MTD) established in the first part of the study (1650 mg administered as multiple doses).
(§4) The loading dose regimens assessed were 1100 mg BID on Day 1 and 550 mg BID on the following 6.5 days in Period 2 of Cohort 4 and 1650 mg BID on Day 1 and 825 mg BID on the following 6.5 days in Cohort 5.

[2] = system: methicillin-resistant S. aureus (MRSA) strain USA 300; assay: Hollow fiber pharmacodynamic model, resistance potential; assay type: cell-based
Experimental: A hollow fiber model was used to evaluate CEM-102 resistance potential in methicillin-resistant S. aureus (MRSA) strain USA 300 (Network of Antimicrobial Resistance in Staphylococcus aureus (NARSA), Chantilly, Va.). USA 300 is a highly virulent strain of MRSA and is the most common community-associated MRSA isolate in the USA. MIC values were determined in accordance with Clinical and Laboratory Standards Institute (CLSI).
The hollow fiber model comprised a two-compartment hollow fiber model (Louie et al. Antimicrob Agents Chemother 52:2486-2496(2008)) consisting of a volume of 15 mL in the central compartment, with multiple ports for the removal of broth, delivery of antibiotics, and collection of bacterial and antimicrobial samples. […] All experiments were performed in duplicate.
Hollow fibers contain 15 ml of media was prepared and inoculated with 10^6 colony forming units (CFU)/mL USA 300 bacteria. One of three different dosing regimens of […] was then applied to the fibers: (1) […] q12h; (2) 1200 mg/ml×2, followed by […], q12h; (3) 1500 mg/ml×2, followed by […], q12h.

[3] = Dose escalation study, single/multiple dose and loading dose regimens: pharmacokinetics; assay type: in vivo, human; conditions: for concentration at 7 days: after 7 days of dosing; for concentration at 7 days / concentration at 24 h: read-out: mean trough plasma concentration
Experimental: as §1, §2, §3, §4

[4] = after the single dose of 2200 mg
[5] = human, in vivo, 550 mg, Period 1 Day 1, single dose 550 mg
[6] = human, in vivo, 1100 mg BID loading dose then 550 mg BID
[7] = human, in vivo, 1100 mg, Period 1 Day 1, single dose 1100 mg
[8] = human, in vivo, 1650 mg BID loading dose then 825 mg BID
[9] = human, in vivo, 1650 mg, Period 1 Day 1, single dose 1650 mg
[10] = human, in vivo, 2200 mg, Period 1 Day 1, single dose 2200 mg

## CC(=O)O[C@H]1C[C@@]2(C)[C@@H](C[C@@H](O)[C@H]3[C@@]4(C)CC[C@@H](O)[C@@H](C)[C@@H]4CC[C@@]32C)/C1=C(\CCC=C(C)C)C(=O)O [CEM-102, Sodium fusidate]
[1]; administered as multiple doses
  maximum tolerated dose (MTD): 1650 mg
[1]; after multiple doses, all cohorts
  subjects reporting nausea: 9 subjects
[1]; after single doses
  changes in physical examinations, vital signs, ECGs, or laboratory parameters: no clinically significant changes
[1]; [4]
  subjects with nausea alone: 2
  subjects with nausea and vomiting: 1 subject
[1]; doses up to 1650 mg BID for 5.5 days
  safety and tolerability: safe and generally well tolerated
[1]; loading dose regimen 1100/550 mg
  Adverse Event (treatment-emergent, per subject and day): Urinary; also recorded: Nausea; also recorded: Constipation
[1]; loading dose regimens 1100/550 mg and 1650/825 mg, total 7.5 days
  tolerability: very well tolerated
[1]; multiple dose 550 mg BID cohort, blinded listing
  Adverse Event (treatment-emergent, per subject and day): Nausea; also recorded: Epigastric pain; also recorded: Dizziness; also recorded: Elevated BP; also recorded: Headache; also recorded: Tachycardia; also recorded: Pharyngitis; also recorded: Hoarseness; also recorded: Sore throat
[1]; multiple dose 1100 mg BID cohort, blinded listing
  Adverse Event (treatment-emergent, per subject and day): Heartburn; also recorded: Constipation; also recorded: Skin Irritation; also recorded: Nausea; also recorded: Dizziness; also recorded: Viral URI
[1]; multiple doses 550 mg BID
  subjects reporting nausea: 2 subjects
[1]; multiple doses 1100 mg BID
  subjects reporting nausea: 2 subjects
[1]; multiple doses 1650 mg BID
  subjects reporting nausea: 5 subjects
  subjects with vomiting: 4 subjects
[1]; single dose 1650 mg
  Adverse Event (treatment-emergent, per subject and day): None
[1]; single dose 2200 mg
  Adverse Event (treatment-emergent, per subject and day): Nausea; also recorded: Vomiting; also recorded: Abdomen distention
[1]; single dose, 550, 1100 or 1650 mg cohorts
  gastrointestinal AEs: no gastrointestinal AEs
[1]; single doses up to 2200 mg
  tolerability: safe and well tolerated
[1]; single doses up to 2200 mg, multiple doses up to 1650 mg for 5.5 days, or loading dose regimens for 7.5 days
  changes in physical examinations, vital signs, ECGs, or laboratory parameters: no clinically significant changes
[1]; whole study
  overall safety and tolerability: safe and generally well tolerated
  serious or life-threatening adverse events: No serious or life-threatening adverse events
[2]; 1200 mg×2 then 600 mg q12h
  reduction of bacterial counts: 2 logs
[2]; 1500 mg×2 then 600 mg q12h
  time until which resistance was suppressed: > 72 h
[3]; Mean AUC(0-12) Day 6/Mean AUC(0-inf) Day 1, 550 mg
  AUC(0-12) accumulation ratio: 2.61
[3]; Mean AUC(0-12) Day 6/Mean AUC(0-inf) Day 1, 1100 mg
  AUC(0-12) accumulation ratio: 2.30
[3]; Mean AUC(0-12) Day 6/Mean AUC(0-inf) Day 1, 1650 mg
  AUC(0-12) accumulation ratio: 1.83
[3]; Mean Cmax Day 6/Mean Cmax Day 1, 550 mg
  Cmax accumulation ratio: 3.89
[3]; Mean Cmax Day 6/Mean Cmax Day 1, 1100 mg
  Cmax accumulation ratio: 3.89
[3]; Mean Cmax Day 6/Mean Cmax Day 1, 1650 mg
  Cmax accumulation ratio: 3.18
[3]; Period 1 Day 1, single dose 550 mg
  Kel, apparent first-order terminal elimination rate constant, mean: 0.0564 h⁻¹
[3]; Period 1 Day 1, single dose 1100 mg
  Kel, apparent first-order terminal elimination rate constant, mean: 0.0617 h⁻¹
[3]; Period 1 Day 1, single dose 1650 mg
  Kel, apparent first-order terminal elimination rate constant, mean: 0.0498 h⁻¹
[3]; Period 1 Day 1, single dose 2200 mg
  Kel, apparent first-order terminal elimination rate constant, mean: 0.0500 h⁻¹
[3]; Period 2 Day 6, 550 mg BID
  Kel, mean: 0.0554 h⁻¹
[3]; Period 2 Day 6, 1100 mg BID
  Kel, mean: 0.0404 h⁻¹
[3]; Period 2 Day 6, 1650 mg BID
  Kel, mean: 0.0199 h⁻¹
[3]; human, in vivo, 550 mg
  Tmax: 3 h
[3]; [5]
  Cmax: 33.4 µg/mL
  Vd/F: 28.4 L
[3]; human, in vivo, 550 mg, Period 1 Day 1, single dose 550 mg, read-out: AUC(0-24), mean
  AUC(0-t): 242 µg·h/mL
[3]; human, in vivo, 550 mg, Period 1 Day 1, single dose 550 mg, read-out: T1/2, harmonic mean (converted)
  half-life: 12.3 h
[3]; human, in vivo, 550 mg, Period 1 Day 1, single dose 550 mg, read-out: Tmax, median
  Tmax: 2 h
[3]; human, in vivo, 550 mg, Period 2 Day 6, 550 mg BID
  Vd/F: 9.88 L
[3]; human, in vivo, 550 mg, Period 2 Day 6, 550 mg BID, 11 doses
  Cmax: 130 µg/mL
[3]; human, in vivo, 550 mg, Period 2 Day 6, 550 mg BID, read-out: AUC(0-12), mean
  AUC(0-t): 1150 µg·h/mL
[3]; human, in vivo, 550 mg, Period 2 Day 6, 550 mg BID, read-out: T1/2, harmonic mean (converted)
  half-life: 12.5 h
[3]; [6]
  concentration at 7 days: ~105 µg/mL
  concentration at 24 h: ~74 µg/mL
[3]; [7]
  Cmax: 72.2 µg/mL
  Vd/F: 16.9 L
[3]; human, in vivo, 1100 mg, Period 1 Day 1, single dose 1100 mg, read-out: AUC(0-24), mean
  AUC(0-t): 844 µg·h/mL
[3]; human, in vivo, 1100 mg, Period 1 Day 1, single dose 1100 mg, read-out: T1/2, harmonic mean (converted)
  half-life: 11.2 h
[3]; human, in vivo, 1100 mg, Period 2 Day 6, 1100 mg BID
  Vd/F: 12.7 L
[3]; human, in vivo, 1100 mg, Period 2 Day 6, 1100 mg BID, 11 doses
  Cmax: 281 µg/mL
[3]; human, in vivo, 1100 mg, Period 2 Day 6, 1100 mg BID, read-out: AUC(0-12), mean
  AUC(0-t): 2530 µg·h/mL
[3]; human, in vivo, 1100 mg, Period 2 Day 6, 1100 mg BID, read-out: T1/2, harmonic mean (converted)
  half-life: 17.1 h
[3]; human, in vivo, 1650 mg
  Tmax: 4 h
[3]; [8]
  concentration at 7 days: ~200 µg/mL
  concentration at 24 h: ~150 µg/mL
[3]; [9]
  Cmax: 102 µg/mL
  Vd/F: 21.1 L
[3]; human, in vivo, 1650 mg, Period 1 Day 1, single dose 1650 mg, read-out: AUC(0-24), mean
  AUC(0-t): 1260 µg·h/mL
[3]; human, in vivo, 1650 mg, Period 2 Day 6, 1650 mg BID
  Vd/F: 34.8 L
[3]; human, in vivo, 1650 mg, Period 2 Day 6, 1650 mg BID, 11 doses
  Cmax: 324 µg/mL
[3]; human, in vivo, 1650 mg, Period 2 Day 6, 1650 mg BID, read-out: AUC(0-12), mean
  AUC(0-t): 3290 µg·h/mL
[3]; human, in vivo, 1650 mg, Period 2 Day 6, 1650 mg BID, read-out: T1/2, harmonic mean (converted)
  half-life: 31.6 h
[3]; human, in vivo, 2200 mg
  CL/F, mean: 0.924 L/h
  half-life: 13.9 h
[3]; [10]
  Cmax: 128 µg/mL
  Vd/F: 19.2 L
[3]; human, in vivo, 2200 mg, Period 1 Day 1, single dose 2200 mg, read-out: AUC(0-24), mean
  AUC(0-t): 1690 µg·h/mL
[3]; human, in vivo, 2200 mg, Period 1 Day 1, single dose 2200 mg, read-out: Tmax, median
  Tmax: 6 h
[3]; human, in vivo, Period 1 Day 1, single dose 550 mg
  AUC(0-inf): 441 µg·h/mL
[3]; human, in vivo, Period 1 Day 1, single dose 1100 mg
  AUC(0-inf): 1100 µg·h/mL
[3]; human, in vivo, Period 1 Day 1, single dose 1650 mg
  AUC(0-inf): 1800 µg·h/mL
[3]; human, in vivo, Period 1 Day 1, single dose 2200 mg
  AUC(0-inf): 2650 µg·h/mL

Source: patent US8450300B2 (priority 2009, dated 2013)
